We go through 31 compounds from PubChem BioAssay (NCI).

Experiment in all cases: NCI anticancer screen, dose series, 48 h
Experiment [1] has as its system HCC-2998 colon.
Experiment [2] relates to KM12 colon.
Experiment [3] has as its system MOLT-4 leukemia.
For experiment [4], the system named is NCI-H522 lung.
In experiment [5] the test system is RXF 393 renal.
The subject of experiment [6] is SF-539 CNS.
Experiment [7] deals with HOP-92 NSCLC.
The subject of experiment [8] is SK-MEL-28 melanoma.
The test system of experiment [9] is HS 578T breast.
Experiment [10] has as its system BT-549 breast.

Several values for one entry are separate records, joined by “and”; a condition that tells them apart may be missing. Equal values may be shown once.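 1) Cells in 96-well plates. 2) Compound, 48 h, 5 concentrations. 3) Linear interpolation between surrounding doses. 4) Unreached endpoint = highest concentration. The concentration for 50% growth inhibition is given as GI50. TGI: total growth inhibition.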

With `CCc1ccccc1-n1c2nc(=O)n(C)c(=O)c-2nc2ccccc21`, the TGI amounted to 25.6 µM in [1]; 34.2 µM in [2]; 35.4 µM in experiment [3]; 27.3 µM in experiment [4]; 30 µM in experiment [5]; 27.7 µM in experiment [6].

For `O=C(/C=C/c1c(O)ccc2ccccc12)c1cccc2ccccc12`, the TGI in experiment [1], in experiment [7], in [2], in [3], in experiment [4] and in [5] was more than 100 µM each time. In addition, the TGI in [6] and in experiment [8] was more than 100 µM throughout.

With `O=C(CCc1ccccc1)On1nnc2ccccc2c1=O`, the TGI in [1], in experiment [7], in experiment [2], in [3], in experiment [4] and in experiment [5] was more than 100 µM each time. For the same compound, the TGI in experiment [6] is more than 100 µM.

Turning to `COc1ccc2[nH]c(-c3cccc(N(C)C)c3)cc(=O)c2c1`, the GI50 in experiment [1] was 472 nM; in [7] it was 3250 nM; in experiment [2], 393 nM; in experiment [4], 407 nM; in experiment [6], 391 nM; in experiment [8], 795 nM. Besides, the TGI is 3.29 µM and 2.29 µM in experiment [1]; 0.509 µM in experiment [9]; 2.71 µM and 1.56 µM in [3]; 0.526 µM and 2.56 µM in experiment [4]; 0.351 µM in [5]; more than 100 µM in experiment [8].

`COc1ccc(/C(Cl)=C(\C=O)c2ccc(Br)cc2)cc1OC`: the TGI in [1] is more than 100 µM; in experiment [7], 72.6 µM; in [2], more than 100 µM; in [3], more than 100 µM; in experiment [4], more than 100 µM; in [5], more than 100 µM. For the same compound, the TGI in experiment [6] is 67.1 µM; in [8], more than 100 µM.

Consider `Cc1ccc(S(=O)(=O)NC(CCC(=O)Nc2ccccc2)C(=O)Nc2ccccc2)cc1` (centres undefined), for which the GI50 in experiment [7] was 157 nM; in experiment [3] it was 375 nM; in experiment [4], 276 nM; in [5], 0.662 µM; in experiment [6], 283 nM. For the same compound, the TGI in [7] was 0.544 µM; in experiment [3], more than 100 µM; in experiment [4] it was 1.14 µM; in [5], 2.25 µM; in experiment [6], 0.89 µM.

For the compound `O=C1OC(c2ccccc2)=N/C1=C\c1c(O)cc(O)cc1O`, the TGI in experiment [7], in [2], in experiment [3], in [4], in experiment [5] and in experiment [6] was more than 100 µM in each case. For the same compound, the TGI in experiment [8] is more than 100 µM.

In the case of `COc1cc(OC)c(OC)cc1/C=C1\C=Cc2ccccc21`, the TGI in experiment [1] turned out to be 28.4 µM; in [9], 96.2 µM; in experiment [2] it was 41.8 µM; in experiment [3], 44.4 µM; in experiment [4], 51.2 µM; in experiment [5], 49.7 µM. The results for the TGI in experiment [6] and in experiment [8] were 35.8 µM and 47.6 µM, respectively.

For `Cc1cccc2c1Oc1cc(Cl)ccc1C2NC(=O)CN(C)C` (centres undefined), the TGI was more than 100 µM in experiment [1]; more than 100 µM in experiment [3]; 87.8 µM in [5]; more than 100 µM in [6]; 72.7 µM in [8].

Take `CC1=Nc2c([nH]c(=S)[nH]c2=O)NC(c2ccc(Cl)c(Cl)c2)C1` (centres undefined): the TGI in experiment [1] is 32 µM; in experiment [7], more than 100 µM; in experiment [2], 32.3 µM; in experiment [3] it was more than 100 µM; in [4], more than 100 µM; in experiment [5], 38.2 µM. Further, the TGI in experiment [6] was 46.5 µM; in experiment [8], 36.7 µM.

In the case of `O=C(N/C(=C\c1ccc(Br)cc1)c1nc2ccccc2s1)c1ccccc1`, the TGI in experiment [7], in experiment [2], in experiment [3], in [4], in experiment [5] and in experiment [6] was more than 100 µM in each case. The TGI in [8] is more than 100 µM.

For `Cc1[nH]c(=O)nc(CC(O)(c2ccccc2)c2ccccc2)c1-c1ccccc1`, the TGI in experiment [1], in experiment [7], in experiment [2], in [3], in experiment [4] and in experiment [5] was more than 100 µM in each case. The TGI in experiment [6] and in experiment [8] was more than 100 µM in each case.

As to `COc1cc(-c2nc(SCC(=O)Nc3ccc(C(C)=O)cc3)[nH]c(=O)c2C#N)cc(OC)c1OC`, the GI50 was 32 µM in experiment [10]; more than 100000 nM in [1]; 22600 nM in [7]; 63600 nM in experiment [2]; 36400 nM in experiment [3]; 40.1 µM in experiment [5]. Moreover, the values for the GI50 in [6] and in [8] were 29600 nM and 47500 nM, respectively. Besides, the TGI in [10] is 99.7 µM; in experiment [1], more than 100 µM; in [7], more than 100 µM; in [2] it was more than 100 µM; in experiment [3], more than 100 µM; in experiment [5], more than 100 µM. The TGI in experiment [6] and in [8] was more than 100 µM throughout.

`O=C(O)c1ccc(N=Nc2cc(S(=O)(=O)O)c3cccnc3c2O)cc1`: the TGI in experiment [1], in experiment [7], in [2], in experiment [3], in [5] and in experiment [6] was more than 100 µM throughout. Besides, in experiment [8], the TGI is more than 100 µM.

Take `N#CCC(=O)N/N=C1/C(=O)NC(=O)C(=O)C1c1nc2ccccc2s1` (centres undefined): the TGI in experiment [1], in experiment [7], in [3], in experiment [4], in [5] and in experiment [6] was more than 100 µM in each case. The compound also showed a TGI in experiment [8] of more than 100 µM.

For the compound `CCOC(=O)C1=C(NC(C)(C)C)OCC1=O`, the TGI in experiment [1], in experiment [7], in [2], in experiment [3], in experiment [4] and in experiment [6] was more than 100 µM in each case. The compound further showed a TGI in [8] of more than 100 µM.

Take `Oc1ccc(/C=N/Nc2nc3ccccc3s2)c(O)c1`: the GI50 in experiment [1] is 3760 nM; in experiment [7], 4460 nM; in [9] it was 2.91 µM; in experiment [2], 2180 nM; in [3], 2240 nM; in experiment [4], 1390 nM. Also, the results for the GI50 in experiment [5], in [6] and in [8] were 3.36 µM, 1890 nM and 2990 nM, respectively. Also, the TGI in [1] is 19.4 µM; in [7], more than 100 µM; in [9] it was more than 100 µM; in experiment [2], 15.8 µM; in experiment [3], 88.1 µM; in experiment [4], 6.11 µM. The TGI in experiment [5] is more than 100 µM; in experiment [6], 9.82 µM; in experiment [8], more than 100 µM.

Regarding `CN(/N=C/c1ccnc2ccccc12)c1ccc([N+](=O)[O-])cc1[N+](=O)[O-]`, the TGI in [1], in experiment [7], in [2], in experiment [3], in experiment [4] and in [5] was more than 100 µM throughout. In addition, the TGI in [6] and in experiment [8] was more than 100 µM in each case.

Consider `CN(C)c1nc(N(C)C)n2nc(-c3ccccc3[N+](=O)[O-])nc2n1`, for which the TGI in experiment [1], in [7], in experiment [2], in experiment [3], in experiment [4] and in experiment [5] was more than 100 µM in each case. Also, the TGI in [6] and in experiment [8] was more than 100 µM throughout.

For `CC(C)c1cc(CNc2nc(Nc3cc(C4CC4)[nH]n3)cc(N3CCN(C)CC3)n2)on1`, the TGI was > 10 µM and 1.4 µM in experiment [10]; > 10 µM and 6.39 µM in [1]; 0.821 µM and 0.182 µM in experiment [7]; > 10 µM and 10.7 µM in [2]; > 10 µM and 8.44 µM in experiment [3]; 4.3 µM and 3.83 µM in [4]. Further, the TGI in experiment [6] was > 10 µM and 1.02 µM; in [8], > 10 µM and 4.59 µM. The GI50 in experiment [1] is 2790 nM and 343 nM; in experiment [7] it was 160 nM and 27.3 nM; in [3], 2710 nM and 477 nM; in experiment [4], 422 nM and 992 nM.

Turning to `Fc1ccc(F)c(C2SCc3nc4ccccc4n32)c1` (centres undefined), the TGI in experiment [1] is more than 100 µM; in experiment [7] it was more than 100 µM; in experiment [2], more than 100 µM; in experiment [3], 91.6 µM; in [4], more than 100 µM; in [5] it was more than 100 µM. For the same compound, the TGI in experiment [6] was more than 100 µM.

`COc1ccc(/C=C/c2nc(=S)[nH][nH]2)cc1`: the TGI in experiment [1], in experiment [7], in experiment [3], in [4], in [5] and in experiment [6] was more than 100 µM each time. Besides, the TGI in experiment [8] was more than 100 µM.

Take `COC(=O)C1=C(c2cc(OC)c(OC)c(OC)c2)OC(c2cc(OC)c(OC)c(OC)c2)C1COC(C)=O` (centres undefined): the TGI in [1] was more than 100 µM; in [7], more than 100 µM; in experiment [2] it was more than 100 µM; in experiment [3], 58.7 µM; in experiment [4] it was more than 100 µM; in [5] it was more than 100 µM. Besides, the TGI in [6] and in experiment [8] was more than 100 µM each time.

With `OCC(O)COc1c(Cl)ccc(Cl)c1Cl` (centres undefined), the TGI in experiment [1], in experiment [7], in experiment [2], in experiment [3], in experiment [4] and in [5] was more than 100 µM in each case. In addition, the TGI in experiment [6] and in experiment [8] was more than 100 µM throughout.

Take `O=C(CCC(=O)N/N=C/c1ccccc1O)N/N=C/c1ccccc1O`: the TGI in [1] was more than 100 µM; in experiment [7] it was 56.7 µM; in [2] it was more than 100 µM; in [3], more than 100 µM; in [4] it was more than 100 µM; in experiment [5], 44.4 µM. The same compound showed a TGI in experiment [8] of more than 100 µM.

For the compound `COC1(OC)CC2C(=O)N(Cc3ccccc3)C1CC2S(=O)(=O)c1ccccc1` (centres undefined), the TGI in experiment [2], in experiment [3], in [4], in experiment [5], in experiment [6] and in experiment [8] was more than 100 µM each time.

As to `CCOC(=O)CC1=NC(=Nc2cc(Cl)ccc2Cl)SC1`, the TGI in [1], in experiment [7], in experiment [2], in experiment [4], in [5] and in [6] was more than 100 µM each time. For the same compound, the TGI in experiment [8] was more than 100 µM.

With `COc1cc2nc(-c3ccc(-n4cncc4-c4ccc(N)cc4)cc3)sc2c(OC)c1OC`, the GI50 in experiment [7] was 446 nM; in [9], 5.36 µM; in [4], 2740 nM; in experiment [5], 4.41 µM; in experiment [6], 7140 nM; in [8], more than 100000 nM. For the same compound, the TGI is 4.08 µM in [7]; 49.7 µM in experiment [9]; 21.6 µM in experiment [4]; 21.1 µM in [5]; more than 100 µM in experiment [6]; more than 100 µM in experiment [8].

For the compound `C[C@H]1COC2(c3ccccc3)CCC(=O)N12` (some centres undefined), the TGI in experiment [7], in [2], in [5], in experiment [6] and in experiment [8] was more than 100 µM throughout.

As to `CCc1ccc(/C(C)=N/NC(N)=S)cc1`, the TGI in experiment [1], in experiment [7], in [2], in experiment [3], in experiment [5] and in [6] was more than 100 µM in each case. The TGI in experiment [8] was more than 100 µM.

On to `O=C(CCCNC(=O)OCc1ccccc1)OCc1ccc2c(c1)C(=O)c1ccccc1C2=O`, for which the TGI in [1] was more than 100 µM; in experiment [7] it was more than 91.3 µM; in experiment [2], more than 100 µM; in experiment [3], more than 100 µM; in [4] it was more than 100 µM; in experiment [5], 48.5 µM. In addition, the TGI was 57.8 µM in experiment [6] and more than 100 µM in [8].
